Experimental data: US20220241176A1, “METHOD FOR LOADING OF MICROORGANISMS ON MULTIPHASE BIOMATERIALS” (priority 2019, published 2022)

Key:
S. aureus [1] = experiment: Agar well diffusion test against S. aureus (without BNC); format: cell-based, Staphylococcus aureus
Procedure: For the agar diffusion test the OD600 of B. megaterium and B. subtilis was adjusted to 0.1 McFarland using sterilized saline NaCl 0.9%. The OD600 of S. aureus was adjusted to 0.5 McFarland using sterilized saline NaCl 0.9%. 20 μl of S. aureus was spread on the surface of Mueller-Hinton agar plate by a sterilized glass spreader. The wells are […] on the agar plate using the back side of a 1 ml pipette tip. A small volume of Mueller-Hinton agar was melted in boiling water bath, then 100 μl of it was used to close the bottom of each created well. After solidification of the agar in the bottom of the wells, the wells were filled with 100 μl of: Negative control, sterilized saline NaCl 0.9%, Positive control, gentamicin 300 μg/ml, B. megaterium or B. subtilis-free supernatant, B. megaterium or B. subtilis suspension.

S. aureus [2] = experiment: Agar diffusion test of loaded BNC fleeces against S. aureus; format: cell-based, Staphylococcus aureus
Procedure: The evaluation of the antibacterial activity of B. subtilis and B. megaterium loaded—BNC against gram-positive S. aureus was determined by an agar diffusion test. Therefore, the bacterial suspensions of B. subtilis and S. aureus were prepared in TSB broth medium as described before. […] 3 BNC fleeces were loaded using B. subtilis suspension in TSB medium, and 3 BNC fleeces were loaded using B. subtilis suspension in saline. Further 3 BNC fleeces were loaded using the B. subtilis free-supernatant, 3 BNC fleeces were loaded with gentamycin as positive control, and 3 BNC fleeces with isotonic saline as negative control. The OD600 of S. aureus was adjusted to 0.5 McFarland using sterilized saline NaCl 0.9% and the optical density spectrophotometer (Biophotometer) was determined. 20 μl of S. aureus was spread on the surface of Mueller-Hinton agar plate by a sterilized glass spreader. The last control and loaded BNC fleeces were added onto surface of the Mueller Hinton agar: 1. Negative control: saline-loaded BNC 2. Positive control: gentamicin-loaded BNC 3. B. subtilis-loaded BNC in TSB medium 4. B. subtilis-loaded BNC in saline 5. B. subtilis-free supernatant-loaded BNC.

Substance: gentamicin [Gentamycin]
- inhibition zone (in words) (S. aureus [1]; agar well diffusion, 100 μl per well, 37° C., 24 h): inhibition zone
- inhibition effect on S. aureus, Without BNC (S. aureus [1]; diffusion test): + (by detection of inhibition zone > 2 mm)
- inhibition effect on S. aureus, on BNC - injection technique (S. aureus [2]): + (by detection of inhibition zone > 2 mm)
- inhibition effect on S. aureus, on BNC - spray technique (S. aureus [2]): + (by detection of inhibition zone > 2 mm)
- inhibition effect on S. aureus, on BNC - vortex technique (S. aureus [2]): + (by detection of inhibition zone > 2 mm)
